Values quoted from earlier work as cited in patent US20120294924A1, “Peptide-Lipid Conjugates And Uses Thereof” (priority 2011, published 2012).
No end group written: not given here.

Conditions: qualitative statement, Li et al., Biochimica et Biophysica Acta 1768:411-418, 2007

binding to LPS: bind to LPS
Sequence: HAEHKVKIGVEQKYGQFPQGTEVTYTCSGNYFLM [Sushi-3, 34mer peptide from a Sushi domain of horseshoe crab Factor C]
